From US11680056B2, “MK2 inhibitors and uses thereof” (Xinthera, Inc., priority 2021, dated 2023) come the findings set out here.

The target of experiment [1] is p38a/PRAK (Homo sapiens (Human), UniProt Q16539). Nature of the experiment: p38a/PRAK biochemical assay: activation of PRAK by p38, FITC-HSP27 peptide phosphorylation (IMAP FP). As to conditions: 10-point 1:3 dilution, top dose 300 μM, 60 pM active p38a, 1 nM inactive PRAK, 10 μM ATP, 2 h incubation; for IC50: read-out: p38a/PRAK Enzyme pIC50 (converted). Here is the method: (§1) Expression vectors of the recombinant MK2 and PRAK kinases were constructed by cloning of the codon optimized gene sequences of MK2 (Uniprot ID P49137, amino acid fragment F46-H400), or PRAK (Uniprot ID Q81W41, amino acid fragment M1-Q471) into pGEX-4T1 (GE) for over expression of these kinases with N-terminal GST-tag. Protein expression was carried out in E. coli BL21 by growing the hosts in TB medium, induction of protein expression with 0.5 mM IPTG at approximate 0.8 OD600, and incubation of the cultures at 18° C. for 14-20 hours afterwards. The harvested cells were resuspended in […] of Lysis buffer (50 mM Tris-HCl, pH 8.0, 500 mM NaCl, 1 mM DTT, 5% glycerol, and 1 mM PMSF) per gram of wet cell mass and homogenized at 4° C. in a microfluidizer (ATS, Suzhou, China) at 14,000 psi pressure, 3 passes. The cell lysates were clarified by centrifugation and the supernatants containing the GST-fusion proteins were purified by affinity chromatography using GSH-Sepharose (GE) gravity flow columns pre-equilibrated in Buffer A (50 mM Tris-HCl, pH 8.0, 500 mM NaCl, 1 mM DTT, and 5% glycerol). After thorough washing of the columns with Buffer A, the bound GST-proteins were eluted by Buffer B (50 mM Tris, pH 8.0, 500 mM NaCl, 1 mM DTT, 5% glycerol, 10 mM glutathione), followed by size-exclusion purification on Superdex 200 column equilibrated in Buffer A. The purified proteins were concentrated to approximately 1 mg/ml and stored at −80° C.
This study evaluates the inhibitory potency of invention compound on p38/MK2 pathway vs p38/PRAK pathway. More specially the compound concentration (IC50) was determined that inhibited half of the maximal activation of MK2 or PRAK by p38. MK2 activation study was set up without or with a serial of 10-point 1:3 dilution of invention compound at top dose of […], and PRAK activation study was set up without or with a serial of 10-point 1:3 dilution of invention compound at top dose of 300 μM. The MK2 and PRAK activity were determined by the phosphorylation level of HSP27 peptide conjugated with FITC.
(§2) After 2 h incubation of the reaction mixture with various concentration of invention compound (200 nL), 60 μL 1×IMAP solution Mixture (Molecular Devices, Cat R8127) was added to the reaction mixture and incubated for another half hour. The signal was then read by Synergy™ Neo2 Multi-Mode Microplate Reader with filter setting (Ex/Em=485 nm/FITC FP-P pol 528 nm & FITC FP-S pol 528 nm)
(§3) The signal was then normalized to vehicle control and fitted in Xfit to generate IC50. The selectivity of MK2 over PRAK was calculated by the formular Selectivity=IC50 of PRAK/IC50 of MK2.

Experiment [2] has as its target p38a/MK2 (Homo sapiens (Human), UniProt P49137+Q16539). As to the kind of experiment: p38a/MK2 biochemical assay: activation of MK2 by p38, FITC-HSP27 peptide phosphorylation (IMAP FP). The conditions noted are these: 10-point 1:3 dilution, 60 pM active p38a, 1 nM inactive MK2, 10 μM ATP, 2 h incubation. Here is the method:
as §1
This study evaluates the inhibitory potency of invention compound on p38/MK2 pathway vs p38/PRAK pathway. More specially the compound concentration (IC50) was determined that inhibited half of the maximal activation of MK2 or PRAK by p38. MK2 activation study was set up without or with a serial of 10-point 1:[…], and PRAK activation study was set up without or with a serial of 10-point 1:3 dilution of invention compound at top dose of 300 μM. The MK2 and PRAK activity were determined by the phosphorylation level of HSP27 peptide conjugated with FITC.
as §2, §3

The mark [3] stands for this setting: top dose 1 μM, read-out: p38a/MK2 (1 μM) Enzyme pIC50 (converted).
[4] abbreviates: top dose 10 μM, read-out: p38a/MK2 (10 μM) Enzyme pIC50 (converted).

Where two headings read alike, the source gives them in different places.

Chain of p38a/PRAK (Q16539 whole entry, the tested form may be a part): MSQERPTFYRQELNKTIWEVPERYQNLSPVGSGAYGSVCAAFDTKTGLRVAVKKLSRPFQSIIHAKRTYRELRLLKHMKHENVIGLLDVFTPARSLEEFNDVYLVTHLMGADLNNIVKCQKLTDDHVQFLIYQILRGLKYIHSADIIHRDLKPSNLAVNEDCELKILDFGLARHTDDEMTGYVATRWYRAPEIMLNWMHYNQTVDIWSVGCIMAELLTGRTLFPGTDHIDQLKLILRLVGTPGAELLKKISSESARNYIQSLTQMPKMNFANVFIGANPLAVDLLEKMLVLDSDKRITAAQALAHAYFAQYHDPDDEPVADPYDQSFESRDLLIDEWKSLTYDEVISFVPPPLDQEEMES
Chain of p38a/MK2 (P49137 46-400): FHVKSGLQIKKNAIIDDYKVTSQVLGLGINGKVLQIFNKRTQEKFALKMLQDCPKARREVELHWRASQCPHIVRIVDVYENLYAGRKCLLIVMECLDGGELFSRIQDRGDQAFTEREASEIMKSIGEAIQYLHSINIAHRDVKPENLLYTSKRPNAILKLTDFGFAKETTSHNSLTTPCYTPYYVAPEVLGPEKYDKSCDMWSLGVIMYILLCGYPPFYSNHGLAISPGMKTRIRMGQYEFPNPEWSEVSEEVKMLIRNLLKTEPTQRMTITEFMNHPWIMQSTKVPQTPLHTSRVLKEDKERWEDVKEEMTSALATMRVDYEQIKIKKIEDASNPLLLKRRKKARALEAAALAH
Chain of p38a/MK2 (Q16539 whole entry): as the sequence (Q16539 whole entry, the tested form may be a part) above

As for `Cc1cnc(-c2ccnc(C(C)(C)CO)n2)cc1-n1c(C)cc(OCc2ncc(F)cc2F)c(Cl)c1=O` (single isomer, unassigned) [Example 4A, rel-3-chloro-4-[(3,5-difluoropyridin-2-yl)methoxy]-2′-[2-(1-hydroxy-2-methylpropan-2-yl)pyrimidin-4-yl]-5′,6-dimethyl-[1,4′-bipyridin]-2-one], the IC50 in experiment [1] was 3980 nM; in experiment [2] (setting [3]), 1.58 nM.

Regarding `Cc1cnc(-c2ccnc(C(C)(C)CO)n2)cc1-n1c(C)cc(OCc2ncc(F)cc2F)c(Cl)c1=O` (single isomer, unassigned) [Example 4B, rel-3-chloro-4-[(3,5-difluoropyridin-2-yl)methoxy]-2′-[2-(1-hydroxy-2-methylpropan-2-yl)pyrimidin-4-yl]-5′,6-dimethyl-[1,4′-bipyridin]-2-one], the IC50 in experiment [1] was above 316000 nM; in experiment [2] (setting [4]), 794 nM.

Regarding `Cc1cnc(-c2cccc([C@H](O)CO)n2)cc1-n1c(C)cc(OCc2ncc(F)cc2F)c(Cl)c1=O` (single isomer, unassigned) [Example 34B, rel-3-chloro-4-[(3,5-difluoropyridin-2-yl)methoxy]-2′-[6-(1,2-dihydroxyethyl)pyridin-2-yl]-5′,6-dimethyl-[1,4′-bipyridin]-2-one], the IC50 is 6310 nM in experiment [1] and 12.6 nM in experiment [2] (setting [4]).

`Cc1cnc(-c2ccnc(C(C)(C)O)n2)c(C)c1-n1c(C)cc(OCc2ncc(F)cc2F)c(Cl)c1=O` (single isomer, unassigned) [Example 49A, rel-3-chloro-4-((3,5-difluoropyridin-2-yl)methoxy)-2′-(2-(2-hydroxypropan-2-yl)pyrimidin-4-yl)-3′,5′,6-trimethyl-2H-[1,4′-bipyridin]-2-one]: the IC50 in experiment [1] is 3160 nM; in experiment [2] (setting [3]), 6.31 nM.

For the molecule `Cc1cnc(-c2cccc([C@@H](O)CO)n2)cc1-n1c(C)cc(OCc2ncc(F)cc2F)c(Cl)c1=O` (single isomer, unassigned) [Example 34A, rel-3-chloro-4-[(3,5-difluoropyridin-2-yl)methoxy]-2′-[6-(1,2-dihydroxyethyl)pyridin-2-yl]-5′,6-dimethyl-[1,4′-bipyridin]-2-one], the IC50 in experiment [1] was 10000 nM; in experiment [2] (setting [3]), 20 nM.

Regarding `Cc1cnc(-n2ccc(CC(C)(C)O)n2)cc1-n1c(C)cc(OCc2ncc(F)cc2F)c(Cl)c1=O` (single isomer, unassigned) [Example 46A, rel-3-chloro-4-[(3,5-difluoropyridin-2-yl)methoxy]-2′-[3-(2-hydroxy-2-methylpropyl)pyrazol-1-yl]-5′,6-dimethyl-[1,4′-bipyridin]-2-one], the IC50 in experiment [1] is 2510 nM; in experiment [2] (setting [3]), 15.8 nM.

For `Cc1cnc(-n2ccc(C(C)(C)CO)n2)cc1-n1c(C)cc(OCc2ncc(F)cc2F)c(Cl)c1=O` (single isomer, unassigned) [Example 37A, rel-3-chloro-4-[(3,5-difluoropyridin-2-yl)methoxy]-2′-[3-(1-hydroxy-2-methylpropan-2-yl)pyrazol-1-yl]-5′,6-dimethyl-[1,4′-bipyridin]-2-one], the IC50 in experiment [1] was 2510 nM; in experiment [2] (setting [3]), 5.01 nM.

Consider `Cc1cc(OCc2ncc(F)cc2F)c(Cl)c(=O)n1-c1cc(-c2ccnc(C(C)(C)O)n2)ncc1C1CC1` (single isomer, unassigned) [Example 40B, rel-3-chloro-5′-cyclopropyl-4-[(3,5-difluoropyridin-2-yl)methoxy]-2′-[2-(2-hydroxypropan-2-yl)pyrimidin-4-yl]-6-methyl-[1,4′-bipyridin]-2-one], for which the IC50 is above 316000 nM in experiment [1] and above 1000 nM in experiment [2] (setting [3]).

In the case of `Cc1cnc(-c2ccc3c(n2)[C@@H](O)CC3)cc1-n1c(C)cc(OCc2ncc(F)cc2F)c(Cl)c1=O` (single isomer, unassigned) [Example 18C], the “p38a/PRAK Enzyme pIC50” value in experiment [1] is below 3.5. Also, the “p38a/MK2 (10 μM) Enzyme pIC50” value in experiment [2] (top dose 10 μM) is given as below 5.0.

On to `[2H]C([2H])(Oc1cc(C)n(-c2c(C)cnc(-c3cccc(C(C)(C)O)[n+]3[O-])c2F)c(=O)c1Cl)c1ncc(F)cc1F` [Example 68A, rel-4′-{3-chloro-4-[(3,5-difluoropyridin-2-yl) (2H2)methoxy]-6-methyl-2-oxopyridin-1-yl}-3′-fluoro-6-(2-hydroxypropan-2-yl)-5′-methyl-[2,2′-bipyridin]-1-ium-1-olate], for which the IC50 in experiment [1] was above 316000 nM; in experiment [2] (setting [3]), above 100 nM.

Take `[2H]C([2H])(Oc1cc(C)n(-c2c(C)cnc(-c3ccnc(C(C)(C)O)n3)c2F)c(=O)c1Cl)c1ncc(F)cc1F` (single isomer, unassigned) [Example 57B, rel-3-chloro-4-[(3,5-difluoropyridin-2-yl)(2H2)methoxy]-3′-fluoro-2′-[2-(2-hydroxypropan-2-yl)pyrimidin-4-yl]-5′,6-dimethyl-[1,4′-bipyridin]-2-one]: the IC50 was 126000 nM in experiment [1] and above 10 nM in experiment [2] (setting [3]).

Turning to `Cc1cnc(-n2ccc(C(C)(C)O)n2)cc1-n1c(C)cc(OCc2ncc(F)cc2F)c(Cl)c1=O` (single isomer, unassigned) [Example 9A, rel-3-chloro-4-((3,5-difluoropyridin-2-yl)methoxy)-2′-(3-(2-hydroxypropan-2-yl)-1H-pyrazol-1-yl)-5′,6-dimethyl-2H-[1,4′-bipyridin]-2-one], the figures for the IC50 in experiment [1] and in experiment [2] (setting [3]) were 3160 nM and 3.98 nM, respectively.

Take `Cc1cnc(-c2ccc3c(n2)C(C)(O)CC3)cc1-n1c(C)cc(OCc2ncc(F)cc2F)c(Cl)c1=O` (single isomer, unassigned) [Example 32A]: the figures for the IC50 in experiment [1] and in experiment [2] (setting [3]) were 6310 nM and 20 nM, respectively.

For the molecule `Cc1cnc(-c2ccc(F)c(C(C)(C)O)n2)cc1-n1c(C)cc(OCc2ncc(F)cc2F)c(Cl)c1=O` (single isomer, unassigned) [Example 24A, rel-3-chloro-4-[(3,5-difluoropyridin-2-yl)methoxy]-1-[5′-fluoro-6′-(2-hydroxypropan-2-yl)-5-methyl-[2,2′-bipyridin]-4-yl]-6-methylpyridin-2-one], the IC50 in experiment [1] is 6310 nM; in experiment [2] (setting [3]), 1.58 nM.

As to `COCC(C)(O)c1nccc(-c2cc(-n3c(C)cc(OCc4ncc(F)cc4F)c(Cl)c3=O)c(C)cn2)n1` (racemic) [Example 55, 3-chloro-4-[(3,5-difluoropyridin-2-yl)methoxy]-2′-[2-(2-hydroxy-1-methoxypropan-2-yl)pyrimidin-4-yl]-5′,6-dimethyl-[1,4′-bipyridin]-2-one], the IC50 was 10000 nM in experiment [1] and 63.1 nM in experiment [2] (setting [3]).

For the molecule `Cc1cnc(-c2nc(C(C)(C)O)ncc2C2CC2)cc1-n1c(C)cc(OCc2ncc(F)cc2F)c(Cl)c1=O` (single isomer, unassigned) [Example 31B, rel-3-chloro-2′-(5-cyclopropyl-2-(2-hydroxypropan-2-yl)pyrimidin-4-yl)-4-((3,5-difluoropyridin-2-yl)methoxy)-5′,6-dimethyl-2H-[1,4′-bipyridin]-2-one], the IC50 in experiment [1] is above 316000 nM; in experiment [2] (setting [4]) it was above 10000 nM.
